US12723063B2, “GIPR-agonist compounds” (Eli Lilly and Company, priority 2019, dated 2026)
pKi: −log10 of the molar value. *1 amine or outer side, *2 acyl side, *3 side chain or, on linkers, in order; H or OH if unused. Where a SMILES comes first, the peptide text is derived from it. Side-chain parts run from the residue outwards. [ ]: non-standard residue; d: D form. The star is where a group is joined. C20 diacid = O=C(O)CCCCCCCCCCCCCCCCCCC(=O)*; αMePhe(2-F) = C[C@](N)(Cc1ccccc1F)C(=O)O; γGlu = O=C(O)[C@H](CCC(=O)[*:2])N[*:1]; 4Pal = N[C@@H](Cc1ccncc1)C(=O)O; AEEA = NCCOCCOCC(=O)O; Aib = CC(C)(N)C(=O)O

Columns and labels:
human GLP-1R = biological target: T1, human GLP-1R (Homo sapiens, UniProt P43220); test: [125I]-GLP-1 binding, SPA with WGA beads, 0.1% bacitracin; conditions: geometric mean, read-out: hGLP1R Ki
T1 construct: expressed in transfected cells; crude membranes
Outline: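 Binding buffer was 25 mM HEPES pH 7.4 with 2.5 mM CaCl2, 1 mM MgCl2, 0.1% (w/v) bacitracin, 0.003% Tween-20 and EDTA-free protease inhibitors. Four-parameter regression gave IC50, converted to Ki (geometric mean, SEM, n independent days).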

human GIPR = biological target: T2, human GIPR (Homo sapiens, UniProt P48546); test: [125I]-GIP binding, SPA with WGA beads, 0.1% bacitracin; conditions: geometric mean, read-out: hGIPR Ki
T2 construct: expressed in transfected cells; crude membranes
T2 sequence (P48546 22-466): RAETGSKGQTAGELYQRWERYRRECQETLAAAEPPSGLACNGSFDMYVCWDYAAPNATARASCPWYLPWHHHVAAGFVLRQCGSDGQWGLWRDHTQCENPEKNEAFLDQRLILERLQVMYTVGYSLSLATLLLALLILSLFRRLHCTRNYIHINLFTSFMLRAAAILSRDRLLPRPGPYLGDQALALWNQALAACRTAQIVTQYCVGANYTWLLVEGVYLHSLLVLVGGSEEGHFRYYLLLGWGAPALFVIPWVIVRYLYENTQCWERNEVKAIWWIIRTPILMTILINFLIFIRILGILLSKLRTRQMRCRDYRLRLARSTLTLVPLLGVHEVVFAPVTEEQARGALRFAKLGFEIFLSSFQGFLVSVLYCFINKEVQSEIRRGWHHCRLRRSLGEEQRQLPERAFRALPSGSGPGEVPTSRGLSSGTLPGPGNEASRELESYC
Outline: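 Ki values are geometric means (SEM, n independent days), derived from four-parameter nonlinear regression of IC50. Membranes came from hGIPR-expressing CHO cells.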

human GcgR = biological target: T3, human GcgR (Homo sapiens, UniProt P47871); test: [125I]-Glucagon binding, SPA with WGA beads, 0.1% bacitracin; conditions: geometric mean, read-out: hGcgR Ki
T3 construct: expressed in transfected cells; crude membranes
Outline: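 SPA competition binding with WGA beads on crude membranes from HEK293 cells stably expressing hGcgR. Buffer: 25 mM HEPES pH 7.4, 2.5 mM CaCl2, 1 mM MgCl2, 0.1% bacitracin, 0.003% Tween-20; 10-point 3-fold dilutions, NSB with 1 μM Gcg.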

T1 sequence (P43220 24-463): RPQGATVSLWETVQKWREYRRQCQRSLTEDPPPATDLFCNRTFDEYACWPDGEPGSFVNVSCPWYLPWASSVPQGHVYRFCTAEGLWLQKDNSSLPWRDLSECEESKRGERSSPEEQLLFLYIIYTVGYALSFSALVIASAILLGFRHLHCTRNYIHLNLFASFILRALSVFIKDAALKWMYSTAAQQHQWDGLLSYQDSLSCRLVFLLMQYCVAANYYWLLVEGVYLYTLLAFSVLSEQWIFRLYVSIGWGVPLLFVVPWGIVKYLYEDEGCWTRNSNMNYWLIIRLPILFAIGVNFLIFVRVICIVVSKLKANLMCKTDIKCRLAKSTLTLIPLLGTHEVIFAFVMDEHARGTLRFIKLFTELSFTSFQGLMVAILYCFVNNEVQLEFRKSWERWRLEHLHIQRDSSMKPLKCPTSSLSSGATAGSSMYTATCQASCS
T3 sequence (P47871 26-477): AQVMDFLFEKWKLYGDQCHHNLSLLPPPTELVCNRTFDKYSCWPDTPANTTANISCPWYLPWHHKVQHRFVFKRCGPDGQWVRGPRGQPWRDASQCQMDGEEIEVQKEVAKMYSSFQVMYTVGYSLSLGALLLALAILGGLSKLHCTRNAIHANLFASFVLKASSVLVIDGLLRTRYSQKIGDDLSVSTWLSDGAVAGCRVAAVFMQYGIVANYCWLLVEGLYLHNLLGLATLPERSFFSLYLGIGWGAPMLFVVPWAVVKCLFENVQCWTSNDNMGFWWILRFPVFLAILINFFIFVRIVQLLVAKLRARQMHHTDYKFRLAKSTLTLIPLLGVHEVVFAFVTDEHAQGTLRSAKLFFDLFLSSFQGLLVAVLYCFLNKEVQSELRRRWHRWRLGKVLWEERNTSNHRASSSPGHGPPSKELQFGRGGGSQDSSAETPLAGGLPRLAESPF

Row | SMILES | pKi (human GLP-1R) | pKi (human GIPR) | pKi (human GcgR)
1 | CC[C@H](C)[C@H](NC(=O)[C@H](CO)NC(=O)[C@H](Cc1ccc(O)cc1)NC(=O)[C@H](CC(=O)O)NC(=O)[C@H](CO)NC(=O)[C@@H](NC(=O)[C@H](Cc1ccccc1)NC(=O)[C@@H](NC(=O)CNC(=O)[C@H](CCC(=O)O)NC(=O)[C@@H](C)NC(=O)[C@@H](N)Cc1ccc(O)cc1)[C@@H](C)O)[C@@H](C)CC)C(=O)N[C@@H](CC(C)C)C(=O)N[C@@H](CC(C)C)C(=O)N[C@@H](CC(=O)O)C(=O)N[C@@H](CCCCN)C(=O)N[C@@H](CCCCNC(=O)COCCOCCNC(=O)COCCOCCNC(=O)CC[C@H](NC(=O)CCCCCCCCCCCCCCCCCCC(=O)O)C(=O)O)C(=O)N[C@@H](C)C(=O)N[C@@H](CCC(N)=O)C(=O)N[C@@H](CCC(N)=O)C(=O)N[C@@H](CC(=O)O)C(=O)N[C@@H](Cc1ccccc1)C(=O)N[C@H](C(=O)N[C@@H](CC(N)=O)C(=O)N[C@@H](Cc1c[nH]c2ccccc12)C(=O)N[C@@H](CC(C)C)C(=O)N[C@@H](CC(C)C)C(=O)N[C@@H](C)C(=O)N[C@@H](CCC(N)=O)C(=O)NCC(=O)N1CCC[C@H]1C(=O)N[C@@H](CO)C(=O)N[C@@H](CO)C(=O)NCC(=O)N[C@@H](C)C(=O)N1CCC[C@H]1C(=O)N1CCC[C@H]1C(=O)N1CCC[C@H]1C(=O)N[C@@H](CO)C(N)=O)C(C)C [Example 11] (H-Y[dA]EGTFISDYSILLDKK([AEEA-AEEA-γGlu-C20 diacid])AQQDFVNWLLAQGPSSGAPPPS-NH2) | 7.07 | 10.23 | 6.79
2 | CC[C@H](C)[C@H](NC(=O)[C@H](CO)NC(=O)[C@H](Cc1ccc(O)cc1)NC(=O)[C@H](CC(=O)O)NC(=O)[C@H](CO)NC(=O)[C@@H](NC(=O)[C@](C)(Cc1ccccc1F)NC(=O)[C@@H](NC(=O)CNC(=O)[C@H](CCC(=O)O)NC(=O)C(C)(C)NC(=O)[C@@H](N)Cc1ccc(O)cc1)[C@@H](C)O)[C@@H](C)CC)C(=O)N[C@@H](C)C(=O)N[C@@H](CC(C)C)C(=O)N[C@@H](CC(=O)O)C(=O)N[C@@H](CCCCN)C(=O)N[C@H](C(=O)N[C@@H](Cc1c[nH]cn1)C(=O)N[C@@H](CCC(N)=O)C(=O)NC(C)(C)C(=O)N[C@@H](CC(=O)O)C(=O)N[C@@H](Cc1ccccc1)C(=O)N[C@H](C(=O)N[C@@H](CCC(=O)O)C(=O)N[C@@H](Cc1ccncc1)C(=O)N[C@@H](CCCCNC(=O)COCCOCCNC(=O)COCCOCCNC(=O)CC[C@H](NC(=O)CCCCCCCCCCCCCCCCCCC(=O)O)C(=O)O)C(=O)N[C@@H](CC(C)C)C(=O)N[C@@H](CCC(=O)O)C(=O)NCC(=O)NCC(=O)N1CCC[C@H]1C(=O)N[C@@H](CO)C(=O)N[C@@H](CO)C(=O)NCC(=O)N[C@@H](C)C(=O)N1CCC[C@H]1C(=O)N1CCC[C@H]1C(=O)N1CCC[C@H]1C(=O)N[C@@H](CO)C(N)=O)C(C)C)[C@@H](C)CC [Example 112] (H-Y[Aib]EGT[αMePhe(2-F)]ISDYSIALDKIHQ[Aib]DFVE[4Pal]K([AEEA-AEEA-γGlu-C20 diacid])LEGGPSSGAPPPS-NH2) | < 6.04 | 10.13 | 6.59
